pIC50: −log10 of the molar value. Counter-ions that a name gives are not always drawn.
Key:
BACE1 enzyme = BACE1 enzyme (Homo sapiens, UniProt P56817); test: BACE1 cell-free assay (fluorescence polarization, synthetic APP substrate); assay type: biochemical; details: for pIC50: values marked b from a single determination; for activity against the BACE1 enzyme: statement in words, used to assign stereochemistry;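 for all read-outs here: soluble His-tagged BACE1 purified from transfected CHO-K1 cell media, biotinylated Oregon Green-labelled peptide substrate, 3 h at 37 °C, cleavage followed as change in fluorescence polarization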
[1] = test system: sAPPβ levels in H4 human neuroglioma cells over-expressing wild-type human APP695; test: sAPPβ whole cell assay (in vitro sAPPb assay, TMB-ELISA); assay type: cell-based
[2] = geometric mean of 2-6 determinations
[3] = Homo sapiens, 18 hours, geometric mean of 2-6 determinations
[4] = geometric mean of 2-4 determinations
[5] = Homo sapiens, 18 hours, geometric mean of 2-4 determinations, values marked b from a single determination
[6] = Homo sapiens, 18 h, geometric mean of 2-4 determinations, values marked b from a single determination

BACE1 enzyme, sequence (P56817 46-501 limits assumed): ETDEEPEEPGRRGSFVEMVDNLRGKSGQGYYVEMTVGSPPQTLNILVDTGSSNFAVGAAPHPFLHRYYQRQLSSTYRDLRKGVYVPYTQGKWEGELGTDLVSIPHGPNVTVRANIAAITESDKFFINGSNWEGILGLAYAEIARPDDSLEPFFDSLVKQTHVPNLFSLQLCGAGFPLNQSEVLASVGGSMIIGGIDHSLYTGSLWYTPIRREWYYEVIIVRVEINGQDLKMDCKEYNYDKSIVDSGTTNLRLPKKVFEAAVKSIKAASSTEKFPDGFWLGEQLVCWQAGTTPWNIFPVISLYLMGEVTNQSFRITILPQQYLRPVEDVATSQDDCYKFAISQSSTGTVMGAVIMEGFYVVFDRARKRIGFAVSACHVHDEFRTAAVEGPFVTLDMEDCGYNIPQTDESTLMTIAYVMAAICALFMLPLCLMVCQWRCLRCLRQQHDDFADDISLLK

Row | pIC50 (BACE1 enzyme; [2]) | pIC50 (BACE1 enzyme; [4]) | pIC50 [1, 5] | Structure (SMILES) | also measured
1 | 5.10 | – | – | NC1=N[C@@]2(c3ccccc3F)COCC[C@H]2CS1 (racemic) [Example 23] | pIC50 ([1]; 18 hours, geometric mean of 2-6 determinations): 6.36
2 | 5.17 | – | – | C[C@H]1SC(N)=N[C@@]2(c3ccccc3F)COCC[C@@H]12 (racemic) [Example 27] | pIC50 [1, 3]: 6.36
3 | 4.95 | – | – | C[C@@H]1SC(N)=N[C@@]2(c3ccccc3F)COCC[C@@H]12 (racemic) [Example 28] | pIC50 [1, 3]: 6.35
4 | 4.56 | – | – | C[C@H]1SC(N)=N[C@@]2(c3cc(Br)ccc3F)COCC[C@@H]12 (racemic) [Example 30] | pIC50 [1, 3]: 5.78
5 | 5.52 | – | – | C[C@H]1SC(N)=N[C@@]2(c3cc(-c4cncnc4)ccc3F)COCC[C@@H]12 (racemic) [Example 31] | pIC50 [1, 3]: 6.95
6 | – | 5.12 | 6.42 | NC1=N[C@@]2(c3ccc(F)cc3)COCC[C@H]2CS1 (relative stereo) [Example 11, rel-(4aR,8aS)-8a-(4-Fluorophenyl)-4,4a,5,6,8,8a-hexahydropyrano[3,4-d][1,3]thiazin-2-amine] | –
7 | – | 5.10 | – | NC1=N[C@@]2(c3ccccc3F)COCC[C@H]2CS1 (relative stereo) [Example 12, rel-(4aR,8aS)-8a-(2-Fluorophenyl)-4,4a,5,6,8,8a-hexahydropyrano[3,4-d][1,3]thiazin-2-amine] | pIC50 [1, 6]: 6.36
8 | – | 5.43 | 6.36 | Cc1ccc([C@]23COCC[C@H]2CSC(N)=N3)c(F)c1 (relative stereo) [Example 13, rel-(4aR,8aS)-8a-(2-Fluoro-4-methylphenyl)-4,4a,5,6,8,8a-hexahydropyrano[3,4-d][1,3]thiazin-2-amine, hydrochloride salt] | –
9 | – | 4.98 | 6.32 | NC1=N[C@@]2(c3ccccc3)COCC[C@H]2CS1 (relative stereo) [Example 14, rel-(4aR,8aS)-8a-Phenyl-4,4a,5,6,8,8a-hexahydropyrano[3,4-d][1,3]thiazin-2-amine] | –
10 | – | – | – | NC1=N[C@@]2(c3c(F)cccc3F)COCC[C@H]2CS1 (relative stereo) [Example 16, rel-(4aR,8aS)-8a-(2,6-Difluorophenyl)-4,4a,5,6,8,8a-hexahydropyrano[3,4-d][1,3]thiazin-2-amine] | pIC50 [1, 6]: 6.30
11 | – | 4.99 | 6.11 | NC1=N[C@@]2(c3ccc(Cl)cc3F)COCC[C@H]2CS1 (relative stereo) [Example 17, rel-(4aR,8aS)-8a-(4-chloro-2-Fluorophenyl)-4,4a,5,6,8,8a-hexahydropyrano[3,4-d][1,3]thiazin-2-amine, hydrochloride salt] | –
12 | – | 5.27 | 6.00 | NC1=N[C@@]2(c3ccc(O)cc3F)COCC[C@H]2CS1 (relative stereo) [Example 18, rel-4-[(4aR,8aS)-2-Amino-4,4a,5,6-tetrahydropyrano[3,4-d][1,3]thiazin-8a(8H)-yl]-3-fluorophenol, ammonium salt] | –
13 | – | < 4.00 | 5.39 | COc1ccccc1[C@]12COCC[C@H]1CSC(N)=N2 (relative stereo) [Example 19, rel-(4aR,8aS)-8a-(2-Methoxyphenyl)-4,4a,5,6,8,8a-hexahydropyrano[3,4-d][1,3]thiazin-2-amine] | –
14 | – | 6.40 | 7.14 | CC(C)OC[C@H]1C[C@H]2CSC(N)=N[C@@]2(c2ccccc2F)CO1 [Example 2, (4aR,6R,8aS)-8a-(2-Fluorophenyl)-6-[(propan-2-yloxy)methyl]-4,4a,5,6,8,8a-hexahydropyrano[3,4-d][1,3]thiazin-2-amine, trifluoroacetate salt] | –
15 | – | 5.64 | 6.36 | NC1=N[C@@]2(c3ccc(F)cc3F)CO[C@@H](CO)C[C@H]2CS1 [Example 3, [(4aR,6R,8aS)-2-Amino-8a-(2,4-difluorophenyl)-4,4a,5,6,8,8a-hexahydropyrano[3,4-d][1,3]thiazin-6-yl]methanol] | –
16 | – | 6.08 | 7.08 | NC1=N[C@@]2(c3ccccc3F)CO[C@@H](CF)C[C@H]2CS1 [Example 5, (4aR,6R,8aS)-6-(Fluoromethyl)-8a-(2-fluorophenyl)-4,4a,5,6,8,8a-hexahydropyrano[3,4-d][1,3]thiazin-2-amine] | –
17 | – | 7.49 | 7.19 | NC1=N[C@@]2(c3ccc(F)cc3F)CO[C@@H](COCc3ccccc3)C[C@H]2CS1 [Example 6, (4aR,6R,8aS)-6-[(Benzyloxy)methyl]-8a-(2,4-difluorophenyl)-4,4a,5,6,8,8a-hexahydropyrano[3,4-d][1,3]thiazin-2-amine, trifluoroacetic acid salt] | –
18 | – | 6.08 | 6.97 | NC1=N[C@@]2(c3ccccc3F)CO[C@@H](COc3ccccc3)C[C@H]2CS1 [Example 7, (4aR,6R,8aS)-8a-(2-Fluorophenyl)-6-(phenoxymethyl)-4,4a,5,6,8,8a-hexahydropyrano[3,4-d][1,3]thiazin-2-amine] | –
19 | – | 5.62 | 6.62 | NC1=N[C@@]2(c3ccccc3F)CO[C@@H](COc3ccccn3)C[C@H]2CS1 [Example 8, (4aR,6R,8aS)-8a-(2-Fluorophenyl)-6-[(pyridin-2-yloxy)methyl]-4,4a,5,6,8,8a-hexahydropyrano[3,4-d][1,3]thiazin-2-amine] | –
20 | – | 6.04 | 7.10 | CCOC[C@H]1C[C@H]2CSC(N)=N[C@@]2(c2ccccc2F)CO1 [Example 9, (4aR,6R,8aS)-6-(Ethoxymethyl)-8a-(2-fluorophenyl)-4,4a,5,6,8,8a-hexahydropyrano[3,4-d][1,3]thiazin-2-amine, trifluoroacetic acid salt] | –
21 | – | 4.89 | 6.31 | NC1=N[C@@]2(c3ccccc3F)CO[C@@H](COC(=O)c3ccccc3)C[C@H]2CS1 [Example 15, [(4aR,6R,8aS)-2-Amino-8a-(2-fluorophenyl)-4,4a,5,6,8,8a-hexahydropyrano[3,4-d][1,3]thiazin-6-yl]methyl benzoate] | –
22 | – | 5.69 | 7.64 | NC1=N[C@@]2(c3ccccc3F)CO[C@@H](COc3cnccn3)C[C@H]2CS1 [Example 21, (4aR,6R,8aS)-8a-(2-Fluorophenyl)-6-[(pyrazin-2-yloxy)methyl]-4,4a,5,6,8,8a-hexahydropyrano[3,4-d][1,3]thiazin-2-amine, trifluoroacetic acid salt] | –
23 | – | 5.10 | 7.15 | NC1=N[C@@]2(c3ccccc3F)CO[C@@H](COc3ncccn3)C[C@H]2CS1 [Example 22, (4aR,6R,8aS)-8a-(2-Fluorophenyl)-6-[(pyrimidin-2-yloxy)methyl]-4,4a,5,6,8,8a-hexahydropyrano[3,4-d][1,3]thiazin-2-amine, trifluoroacetic acid salt] | –
24 | 5.34 | – | – | NC1=N[C@@]2(c3ccccc3F)COCC[C@H]2CS1 [Example 24] | pIC50 ([1]; Homo sapiens, 18 h, geometric mean of 2-6 determinations): 6.34
25 | 4.06 | – | – | NC1=N[C@@]2(c3ccccc3OC(F)(F)F)COCC[C@H]2CS1 [Example 25] | –
26 | 5.91 | – | – | COC[C@H]1C[C@H]2CSC(N)=N[C@@]2(c2ccccc2F)CO1 [Example 26] | pIC50 [1, 3]: 6.83
27 | 5.08 | – | – | NC1=N[C@@]2(c3ccccc3F)CO[C@@H](CO)C[C@H]2CS1 [Example 29] | pIC50 [1, 3]: 6.31

Row | Structure (SMILES) | pIC50 (BACE1 enzyme; [2]) | pIC50 (BACE1 enzyme; [4]) | pIC50 [1, 5] | also measured
28 | NC1=N[C@@]2(c3ccc(F)cc3F)COCC[C@H]2CS1 [Example 1, (4aR,8aS)-8a-(2,4-Difluorophenyl)-4,4a,5,6,8,8a-hexahydropyrano[3,4-d][1,3]thiazin-2-amine] | – | – | 6.68 | activity against the BACE1 enzyme (BACE1 enzyme): displays activity against the BACE1 enzyme
29 | NC1=N[C@]2(c3ccc(F)cc3F)COCC[C@@H]2CS1 [Example 20, (4aS,8aR)-8a-(2,4-Difluorophenyl)-4,4a,5,6,8,8a-hexahydropyrano[3,4-d][1,3]thiazin-2-amine] | – | – | < 4.57 | activity against the BACE1 enzyme (BACE1 enzyme): does not
